Source: paper PMC4014703 (Pharmaceuticals, 2014)
Where a SMILES comes first, the peptide text is derived from it. Side-chain parts run from the residue outwards. [ ]: non-standard residue; d: D form. The star is where a group is joined. DOTA = O=C(O)CN1CCN(CC(=O)O)CCN(CC(=O)*)CCN(CC(=O)O)CC1; PEG6 = NCCOCCOCCOCCOCCOCCOCCC(=O)O; Tle = CC(C)(C)[C@H](N)C(=O)O; Nlys = NCCCCNCC(=O)O

Assays:
in vivo = test: in vivo; parameters: species or system nude mice; details: nude, mouse, total radioactivity
Method: 10–14 days after inoculation of the HT29 cells (tumor weight: 200–700 mg), the mice (about 10–12 weeks old with about 35–40 g body weight) were used for biodistribution studies. […] They were sacrificed by cervical dislocation 1 h, 4 h and 24 h after injection. Tumors and other tissues (blood, lung, liver, kidneys, heart, spleen, brain, muscle, femur and intestine) were rapidly removed and weighed. Radioactivity of the dissected tissues was measured using a gamma counter (Wallac Wizard, Perkin Elmer). Results were expressed as percentage of injected dose per gram of tissue (% ID/g), and tumor-to-organ ratios were calculated. Two randomly chosen mice were used for the determination of nonspecific tracer uptake in vivo. […] These mice were sacrificed by cervical dislocation at 4 h post injection (p.i.) and organs and tissue were removed, weighed and counted as described above.

tumor = details: ^188Re-labeled peptide, day 6 after begin of treatment; cited from earlier work

tissue to tissue ratio at 1 h (in vivo; iv) | tissue to tissue ratio at 24 h (in vivo; iv) | tissue uptake at 1 h (in vivo; iv) [%ID/g] | tissue uptake at 24 h (in vivo; iv) [%ID/g] | tissue uptake at 24 h (in vivo; iv, Accumulation in HT29 tumor) [%ID/g] | tissue uptake at 1 h (in vivo; iv, Accumulation in kidney) [%ID/g] | tissue uptake at 24 h (in vivo; iv, Radioactivity concentration in liver) [%ID/g] | tissue uptake at 4 h (in vivo; Accumulation in HT29 tumor) [%ID/g] | Compound | Tumor growth in tumor-bearing nude mice (tumor)
30 | 60 | 0.05 | 0.01 | 0.6 | 38 ± 1 | 0.4 | 1.1 | CC(C)C[C@H](NC(=O)[C@@H](NC(=O)[C@H](Cc1ccc(O)cc1)NC(=O)[C@@H]1CCCN1C(=O)[C@H](CCCCN)NC(=O)CN(CCCCN)C(=O)[C@@H](N)CCCCNC(=O)CCOCCOCCOCCOCCOCCOCCNC(=O)CN1CCN(CC(=O)O)CCN(CC(=O)O)CCN(CC(=O)O)CC1)C(C)(C)C)C(=O)O [[^177Lu]NT127, metal not drawn] (H-K([PEG6-DOTA])[Nlys]KPY[Tle]L-OH) | 
 |  |  |  |  |  |  |  | (N^αHis)Ac-Arg-(N-CH3)-Arg-Pro-Dmt-Tle-Leu [NT-XIX] | decreased
